Measured values as given in ChEMBL document CHEMBL1201862, “PubChem BioAssay data set” (2004).
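Results reflect a 48-hour exposure of cells in 96-well plates to compound at five concentrations. Here, GI50 denotes the concentration required for 50% inhibition of growth.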 Calls of active or inactive are those of the source. Cut-off read from the data, not from the text of the source: active = GI50 up to about 1.1 µM and inactive = higher. Numbered stars: 1 amine (or outer) side, 2 acyl side, 3 side chain; on linkers, the order of the positions; unused ones are H or OH. Square brackets hold non-standard residues; d marks the D form. Peptide text beside a SMILES is read from it. * marks the point of attachment. X30 = CC(=O)N(C)SCC(N[*:1])C(=O)[*:2]; Cbz = O=C(OCc1ccccc1)*; Bn = c1ccc(C*)cc1

Columns and labels:
Assay in all cases: NCI-60 cell line screen, 48 h
[1] = test system: MDA-N
[2] = test system: UO-31
[3] = test system: SNB-19
[4] = test system: MDA-MB-435
[5] = test system: KM12
[6] = test system: ACHN
[7] = test system: NCI-H460
[8] = test system: A549
[9] = test system: HL-60
[10] = test system: HT-29
[11] = test system: MCF7
[12] = test system: HCC 2998
[13] = test system: HOP-62
[14] = test system: EKVX
[15] = test system: PC-3
[16] = test system: SK-MEL-5
[17] = test system: OVCAR-4
[18] = test system: M14
[19] = test system: MOLT-4
[20] = test system: NCI-H522

Measured: GI50

COc1ccc(-c2cc(-c3ccccc3)c3c(n2)-c2ccccc2NC(=O)C3)cc1
inactive: [1] 30 µM | [2] > 100 µM | [3] 34.7 µM | [4] > 100 µM | [5] 35.4 µM | [6] 35.1 µM | [7] 25.9 µM | [8] 49.4 µM | [9] > 100 µM | [10] 12.1 µM | [11] 39.4 µM | [12] 53 µM | [13] 36 µM | [14] 40.3 µM | [15] 28.3 µM | [16] 23.8 µM | [17] 3.64 µM | [18] 71 µM

COc1ccccc1/C=C1\S/C(=N/Nc2nc(C)c(C(C)=O)s2)NC1=O
inactive: [19] 35.6 µM | [1] 29.9 µM | [2] 37.2 µM | [3] 51.2 µM | [4] 32.6 µM | [5] 38 µM | [6] 49.1 µM | [7] 55.7 µM | [8] 44.8 µM | [9] 26.1 µM | [10] 42.9 µM | [11] 25.6 µM | [12] 94.6 µM | [13] 81.1 µM | [15] 43.6 µM | [16] 19.7 µM | [17] > 100 µM | [18] 74 µM

COC(=O)c1ccc(OCCn2nnc(C(=O)NN)c2C(=O)NN)cc1
inactive: [19] > 100 µM | [1] > 100 µM | [2] > 100 µM | [3] > 100 µM | [4] > 100 µM | [5] > 100 µM | [6] > 100 µM | [7] 74 µM | [8] > 100 µM | [9] > 100 µM | [10] > 100 µM | [11] > 100 µM | [12] > 100 µM | [13] > 100 µM | [14] > 100 µM | [15] > 100 µM | [16] > 100 µM | [17] > 100 µM | [18] > 100 µM

Cc1cc2c(c(C(=O)NCCC(=O)N[C@@H](C)C(=O)OCc3ccccc3)c1)Oc1c(cc(C)cc1C(=O)NCCC(=O)N[C@@H](C)C(=O)OCc1ccccc1)S2
inactive: [19] > 100 µM | [1] > 100 µM | [2] > 100 µM | [3] > 100 µM | [4] > 100 µM | [5] > 100 µM | [6] > 100 µM | [7] > 100 µM | [8] > 100 µM | [10] > 100 µM | [11] > 100 µM | [12] > 100 µM | [13] > 100 µM | [14] > 100 µM | [15] > 100 µM | [16] > 100 µM | [17] > 100 µM | [18] > 100 µM

CC(=O)N(C)SCC(NC(=O)C(Cc1ccccc1)NC(=O)OCc1ccccc1)C(=O)NC(Cc1ccccc1)C(=O)NC(Cc1c[nH]c2ccccc12)C(=O)NC(CCCCNC(=O)OCc1ccccc1)C(=O)NC(C(=O)NC(CSN(C)C(C)=O)C(=O)NC(C(N)=O)C(C)OCc1ccccc1)C(C)OCc1ccccc1 (centres undefined) (Cbz-F[X30]FWK(Cbz)T(Bn)[X30]T(Bn)-NH2; configuration not given here)
inactive: [19] > 100 µM | [1] > 100 µM | [2] > 100 µM | [3] > 100 µM | [4] > 100 µM | [5] 40.9 µM | [6] > 100 µM | [7] > 100 µM | [8] > 100 µM | [9] > 100 µM | [10] > 100 µM | [11] 86.5 µM | [12] > 100 µM | [13] > 100 µM | [14] > 100 µM | [15] > 100 µM | [16] > 100 µM | [17] > 100 µM | [18] > 100 µM

CN(CC#N)C(=O)Cc1ccc([N+](=O)[O-])cc1
inactive: [19] > 10 µM | [1] > 10 µM | [2] > 10 µM | [3] > 10 µM | [4] > 10 µM | [5] > 10 µM | [6] > 10 µM | [7] > 10 µM | [8] > 10 µM | [9] > 10 µM | [10] > 10 µM | [11] > 10 µM | [12] > 10 µM | [13] > 10 µM | [14] > 10 µM | [15] > 10 µM | [16] > 10 µM | [17] > 10 µM | [18] > 10 µM

c1ccc2c(CC3NCCN3)cccc2c1
inactive: [19] > 100 µM | [1] > 100 µM | [20] > 100 µM | [3] > 100 µM | [4] > 100 µM | [5] > 100 µM | [6] > 100 µM | [7] > 100 µM | [8] > 100 µM | [9] > 100 µM | [10] > 100 µM | [11] > 100 µM | [13] > 100 µM | [14] > 100 µM | [15] > 100 µM | [16] > 100 µM | [17] > 100 µM | [18] > 100 µM
